Measured values reported in patent publication US6660742B2, “Compositions and methods of the use thereof achiral analogues of CC-1065 and the duocarmycins” (priority 2000, dated 2003).
Where two headings read alike, the source gives them in different places.

Experiments:
SR = experiment: NCI screen, SR (Leukemia)
Experimental: (§1) The compounds of this invention were also tested against the panel of 60 human cancer cell lines at the National Cancer Institute, Bethesda, Md. […] The cytrotoxicity studies were conducted using a 48 hour exposure, and measuring the optical density of sulforhodamide B-derived color.

[1] = tested on: MCF-7 (human breast cancer cells); experiment: SRB cytotoxicity on MCF-7 cells; format: cell-based
Experimental: Cells were seeded in 96-well microtiter plates at densities of 1000 cells/well. The optimal seeding density was determined to ensure exponential growth in control wells throughout the experimental period and to obtain a linear relationship between absorbance at 492 nm and cell number when analyzed by the sulforhodamine B (SRB) assay (43). 24 hours after seeding the cells were incubated for 1 hour or continuously for 3 days with the drugs (concentration range 0.01 to 500 μM). The cells were washed once and then incubated in drug free medium for 6 days. At the end of the incubation cell growth was determined by the SRB assay, which quantifies viable cells by measuring their total cellular protein content. […] Similar studies were conducted against the growth of PC3 (human prostate cancer cells) and MCF-7 (human breast cancer cells).

NCI-H522 = experiment: NCI screen, NCI-H522 (Non-Small Cell Lung Cancer)
Experimental: as §1

OVCAR-3 = experiment: NCI screen, OVCAR-3 (Ovarian Cancer)
Experimental: as §1

K-562 = experiment: NCI screen, K-562 (Leukemia)
Experimental: as §1

UO-31 = experiment: NCI screen, UO-31 (Renal Cancer)
Experimental: as §1

P815 mastocytoma cells = experiment: MTT cytotoxicity on P815 cells; format: cell-based, murine; conditions: 72 hr incubation
Experimental: The P815 and L1210 cell lines were obtained from American Type Tissue Culture Collection (ATCC). The cell lines were grown in Delbecco's Modified Eagle Medium (DMEM, Atlanta Biologicals) supplemented with 10% fetal bovine serum, Hepes Buffer (2 mM, Mediatech Cellgro, 25-060-Cl), L-Glutamine (2 mM, Mediatech Cellgro), and penicillin/streptomycin (50,000 units penicillin, 50,000 […], Atlanta Biologicals). Cells were maintained at 37° C. in a 5% humidified CO2 atmosphere. Cultured cells were counted using a hemocytometer and resuspended in fresh DMEM at a concentration of 8×10^5 cells/mL. This cell suspension (100 μL) was added to 96 well flat -bottom cell culture plates. At this concentration, 80,000 cells were seeded in each well. Drug solutions (dissolved in DMSO and diluted in DMEM) were added to each well (5 μL/well) resulting in final concentrations ranging from 1×10^−4 to 1×10^−12 M. Quadruplicate wells were prepared for each drug concentration. The plates were incubated for 72 hr at 37° C. in a 5% CO2 atmosphere. MTT (3-(4,5-dimethylthiazol-2-yl)-2,5-diphenyl tetrazolium bromide) was dissolved in PBS (5 mg/ml). After the indicated cell incubation period, 10 μL of this stock MTT solution was added to each well and the plates were further incubated for 4 h at 37° C. in a 5% CO2 atmosphere. […] The contents of the well were mixed thoroughly by pipetting the cell suspension up and down and the plates were allowed to sit at room temperature for 15 min in order to allow for full development of the purple color. The plates were read on a Dynatech Plate Reader, utilizing Dynex Revelation 3.2 software, with a test wavelenth of 570 nm and a reference wavelength of 630 nm.

EKVX = experiment: NCI screen, EKVX (Non-Small Cell Lung Cancer)
Experimental: as §1

SNB-19 = experiment: NCI screen, SNB-19 (CNS Cancer)
Experimental: as §1

T-47D = experiment: NCI screen, T-47D (Breast Cancer); format: cell-based, human
Experimental: as §1

HL-60(TB) = format: cell-based
[2] = Log10 Concentration −4.3, 48 hour exposure
[3] = Log10 Concentration −5.3, 48 hour exposure
[4] = Log10 Concentration −6.3, 48 hour exposure
[5] = Log10 Concentration −7.3, 48 hour exposure
[6] = Log10 Concentration −8.3, 48 hour exposure

Experimental for BT-549: (§2) The compounds of this invention were also tested against the panel of 60 human cancer cell lines at the National Cancer Institute, Bethesda, Md. (44). The cytrotoxicity studies were conducted using a 48 hour exposure, and measuring the optical density of sulforhodamide B-derived color.
Experimental for CCRF-CEM: as §1
Experimental for DU-145: as §1
Experimental for HS 578T: as §2
Experimental for MALME-3M: as §1
Experimental for MCF7: as §1
Experimental for MOLT-4: as §1
Experimental for OVCAR-5: as §1
Experimental for RXF 393: as §1

## O=C(Nc1cc(O)ccc1CCCl)c1cc2cc(NC(=O)c3cc4ccccc4o3)ccc2[nH]1 [Compound 1, 4-(2-Chloroethyl)-3-[5-(5-benzofuran-2-carboxamido)indole-2-carboxamido]phenol]
SR
  GI50: 0.852 µM
  TGI: 8.12E−06 Molar
SR; Log10 Concentration −4.0
  Percent Growth: −7%
OVCAR-5
  CC50: 20 µM
  Percent Growth: −29%
OVCAR-5; OVCAR-5
  GI50: 2.28 µM
  TGI: 5.80E−06 Molar
OVCAR-5; OVCAR-5, Log10 Concentration −4.0
  Percent Growth: −99%
OVCAR-5; OVCAR-5, Log10 Concentration −6.0
  Percent Growth: 94%
OVCAR-5; OVCAR-5, Log10 Concentration −7.0
  Percent Growth: 95%
OVCAR-5; OVCAR-5, Log10 Concentration −8.0
  Percent Growth: 94%
HS 578T
  CC50: > 100 µM
BT-549
  CC50: > 100 µM
[1]; continuous exposure, read-out: IC50 MCF-7 Continuous exposure
  IC50: 3.43 µM
[1]; read-out: IC50 MCF-7 1 hour exposure, 1 hour exposure
  IC50: > 50 µM
NCI-H522
  GI50: 0.933 µM
  TGI: 3.00E−06 Molar
NCI-H522; Log10 Concentration −4.0
  Percent Growth: −80%
NCI-H522; Log10 Concentration −7.0
  Percent Growth: 99%
NCI-H522; Log10 Concentration −8.0
  Percent Growth: 98%
HCT-15
  GI50: 1.91 µM
  Percent Growth: −91%
  TGI: 4.89E−06 Molar
MALME-3M
  GI50: 1.84 µM
  TGI: 3.56E−06 Molar
MALME-3M; Log10 Concentration −4.0
  Percent Growth: −95%
MALME-3M; Log10 Concentration −7.0
  Percent Growth: 102%
MALME-3M; Log10 Concentration −8.0
  Percent Growth: 102%
OVCAR-3
  GI50: 2.13 µM
  TGI: 4.69E−06 Molar
OVCAR-3; Log10 Concentration −4.0
  Percent Growth: −99%
OVCAR-3; Log10 Concentration −7.0
  Percent Growth: 102%
OVCAR-3; Log10 Concentration −8.0
  Percent Growth: 94%
K-562
  GI50: 2.88 µM
  TGI: 9.59E−06 Molar
K-562; Log10 Concentration −4.0
  Percent Growth: −5%
CCRF-CEM
  CC50: > 100 µM
DU-145
  Percent Growth: 53%
DU-145; DU-145
  GI50: 1.12 µM
  TGI: 6.16E−06 Molar
DU-145; DU-145, Log10 Concentration −4.0
  Percent Growth: −96%
DU-145; DU-145, Log10 Concentration −5.0
  Percent Growth: −14%
DU-145; DU-145, Log10 Concentration −7.0
  Percent Growth: 104%
DU-145; DU-145, Log10 Concentration −8.0
  Percent Growth: 101%
KM12
  GI50: 18.8 µM
  Percent Growth: 93%
  TGI: 3.50E−05 Molar
RXF 393
  CC50: 4.77 µM
UO-31
  Percent Growth: 123%
UO-31; UO-31
  GI50: 3 µM
  TGI: 6.38E−06 Molar
UO-31; UO-31, Log10 Concentration −4.0
  Percent Growth: −97%
UO-31; UO-31, Log10 Concentration −5.0
  Percent Growth: −30%
UO-31; UO-31, Log10 Concentration −7.0
  Percent Growth: 102%
UO-31; UO-31, Log10 Concentration −8.0
  Percent Growth: 105%
P815 mastocytoma cells
  IC50: 43 µM
MOLT-4
  CC50: > 100 µM
EKVX
  GI50: 1.78 µM
  TGI: 4.41E−06 Molar
EKVX; Log10 Concentration −4.0
  Percent Growth: −80%
EKVX; Log10 Concentration −7.0
  Percent Growth: 96%
SNB-19
  GI50: 3.53 µM
  TGI: 1.38E−05 Molar
SNB-19; Log10 Concentration −4.0
  Percent Growth: −75%
MCF7
  CC50: 5 µM

## COC(=O)c1[nH]c2c(O)cc(NC(=O)c3cc4cc(OC)c(OC)c(OC)c4[nH]3)c(CCCl)c2c1C(=O)OC [Compound 22, Dimethyl 4-(2-chloroethyl)-7-hydroxy-5-(5,6,7-trimethoxyindole-2-carboxamido)indole-2,3-dicarboxylate]
SR; 48 hour exposure
  TGI: >5.00E−05 Molar
SR; Homo sapiens, 48 h, read-out: LC50
  CC50: > 50 µM
SR; [2]
  Percent Growth: 20%
SR; [3]
  Percent Growth: 27%
SR; [4]
  Percent Growth: 21%
SR; [5]
  Percent Growth: 28%
SR; [6]
  Percent Growth: 51%
T-47D; Homo sapiens, T47D, 48 h, read-out: LC50
  CC50: > 50 µM
T-47D; Homo sapiens, T47D, T-47D, 48 hour exposure
  GI50: 0.171 µM
T-47D; T-47D, 48 hour exposure
  TGI: >5.00E−05 Molar
T-47D; T-47D, Log10 Concentration −4.3, 48 hour exposure
  Percent Growth: 14%
T-47D; T-47D, Log10 Concentration −5.3, 48 hour exposure
  Percent Growth: 33%
T-47D; T-47D, Log10 Concentration −6.3, 48 hour exposure
  Percent Growth: 29%
T-47D; T-47D, Log10 Concentration −7.3, 48 hour exposure
  Percent Growth: 74%
T-47D; T-47D, Log10 Concentration −8.3, 48 hour exposure
  Percent Growth: 100%
HL-60(TB); 48 hour exposure
  TGI: >5.00E−05 Molar
HL-60(TB); [2]
  Percent Growth: 3%
HL-60(TB); [3]
  Percent Growth: 9%
HL-60(TB); [4]
  Percent Growth: 10%
HL-60(TB); [5]
  Percent Growth: 54%
HL-60(TB); [6]
  Percent Growth: 85%
NCI-H522; 48 hour exposure
  TGI: 1.47E−07 Molar
NCI-H522; [2]
  Percent Growth: −96%
NCI-H522; [3]
  Percent Growth: −86%
NCI-H522; [4]
  Percent Growth: −66%
NCI-H522; [5]
  Percent Growth: 58%
NCI-H522; [6]
  Percent Growth: 74%
HCT-15
  TGI: 4.00E−06 Molar
OVCAR-3; 48 hour exposure
  TGI: 6.80E−06 Molar
OVCAR-3; [2]
  Percent Growth: −82%
OVCAR-3; [3]
  Percent Growth: 13%
OVCAR-3; [4]
  Percent Growth: 4%
OVCAR-3; [5]
  Percent Growth: 87%
OVCAR-3; [6]
  Percent Growth: 97%
K-562; 48 hour exposure
  TGI: >5.00E−05 Molar
K-562; [2]
  Percent Growth: 36%
K-562; [3]
  Percent Growth: 34%
K-562; [4]
  Percent Growth: 43%
K-562; [5]
  Percent Growth: 77%
K-562; [6]
  Percent Growth: 94%
KM12
  TGI: 2.03E−07 Molar
UO-31; UO-31, Log10 Concentration −4.3, 48 hour exposure
  Percent Growth: 8%
UO-31; UO-31, Log10 Concentration −5.3, 48 hour exposure
  Percent Growth: 5%
UO-31; UO-31, Log10 Concentration −6.3, 48 hour exposure
  Percent Growth: −47%
UO-31; UO-31, Log10 Concentration −7.3, 48 hour exposure
  Percent Growth: 91%
UO-31; UO-31, Log10 Concentration −8.3, 48 hour exposure
  Percent Growth: 96%
EKVX; 48 hour exposure
  TGI: 5.14E−07 Molar
EKVX; [2]
  Percent Growth: −83%
EKVX; [3]
  Percent Growth: −62%
EKVX; [4]
  Percent Growth: 1%
EKVX; [5]
  Percent Growth: 102%
EKVX; [6]
  Percent Growth: 102%
SNB-19; 48 hour exposure
  TGI: 1.64E−05 Molar
SNB-19; [2]
  Percent Growth: −7%
SNB-19; [3]
  Percent Growth: 7%
SNB-19; [4]
  Percent Growth: 21%
SNB-19; [5]
  Percent Growth: 83%
SNB-19; [6]
  Percent Growth: 89%
